Among the test systems are SK-MEL-2 melanoma; SF-295 CNS; SNB-75 CNS; A498 renal; SNB-19 CNS; SN12C renal; OVCAR-8 ovarian; A549 NSCLC; NCI/ADR-RES ovarian; NCI-H522 lung.
Common to all, as to assay: NCI tumour cell line growth inhibition, 48 h

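96-well plates; 48 h exposure; 5 concentrations. Endpoints by linear interpolation between flanking doses. Not reached: highest tested concentration assigned. TGI: total growth inhibition.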

With `CSc1cnc2ccccc2c1Sc1cn(C)c2ccccc2c1=O`, the TGI in the test with SK-MEL-2 melanoma was greater than 100 µM; with SF-295 CNS, greater than 100 µM; in the test on SNB-75 CNS it was 46.8 µM; with A498 renal, greater than 100 µM; in the test with SNB-19 CNS, 83.3 µM; with SN12C renal, greater than 100 µM. Further, the TGI in the test with OVCAR-8 ovarian was 45 µM; in the test with A549 NSCLC it was greater than 100 µM.

In the case of `COC(=O)c1c(C(=O)OC)c2ccccn2c1-c1cc(C)cc2c1C(=O)C=CC2=O`, the TGI in the test with SK-MEL-2 melanoma amounted to 17.2 µM; in the test with SF-295 CNS, 18 µM; with NCI/ADR-RES ovarian, 27.8 µM; in the test with SNB-75 CNS, 23.6 µM; with A498 renal it was 17.5 µM; in the test with SNB-19 CNS, 18.6 µM. Further, the values for the TGI in the test on SN12C renal, in the test with OVCAR-8 ovarian and in the test on A549 NSCLC were 17.6 µM, 14.4 µM and 25.7 µM, respectively.

On to `NCCCc1nonc1C(=O)O`, for which the TGI in the test with SK-MEL-2 melanoma, in the test on SF-295 CNS, in the test on NCI/ADR-RES ovarian, with SNB-75 CNS, with SNB-19 CNS and in the test on SN12C renal was greater than 100 µM throughout. Moreover, the TGI with OVCAR-8 ovarian and in the test with A549 NSCLC was greater than 100 µM in each case.

`C/C(=C/C(=O)N(C)c1ccccc1Cl)O[Si](C(C)C)(C(C)C)C(C)C`: the TGI was 74.8 µM in the test with SF-295 CNS; 39.6 µM in the test on NCI/ADR-RES ovarian; 31.8 µM in the test with NCI-H522 lung; greater than 100 µM in the test with SNB-75 CNS; 64.5 µM in the test on SNB-19 CNS; 32.4 µM in the test with SN12C renal. For the same molecule, the results for the TGI in the test on OVCAR-8 ovarian and in the test with A549 NSCLC were 47 µM and greater than 100 µM, respectively.

Regarding `O=C(O)c1ccc2nc(-c3ccccn3)c(-c3ccccn3)nc2c1`, the TGI with SK-MEL-2 melanoma, in the test on SF-295 CNS, in the test on NCI/ADR-RES ovarian, in the test with SNB-75 CNS, in the test with A498 renal and in the test on SNB-19 CNS was greater than 100 µM in each case. The molecule further registered a TGI in the test on OVCAR-8 ovarian greater than 100 µM.

With `COc1ccc2c(c1)SC1=Nc3sc4cc(OC)ccc4[n+]3CN12`, the TGI was 65.3 µM in the test on SK-MEL-2 melanoma; greater than 100 µM with SF-295 CNS; greater than 100 µM in the test with NCI/ADR-RES ovarian; 8.5 µM in the test with NCI-H522 lung; greater than 100 µM in the test on SNB-19 CNS; greater than 100 µM in the test with SN12C renal. Moreover, the TGI in the test with OVCAR-8 ovarian and in the test on A549 NSCLC was greater than 100 µM in each case.

Turning to `O=c1cc(O)c1=O`, the TGI in the test on SK-MEL-2 melanoma, with SF-295 CNS, with NCI-H522 lung, in the test with SNB-75 CNS, in the test with A498 renal and with SNB-19 CNS was greater than 100 µM throughout. Further, the TGI in the test with SN12C renal, in the test on OVCAR-8 ovarian and with A549 NSCLC was greater than 100 µM throughout.

Consider `COCc1nc(C#N)c(N)o1`, for which the TGI in the test on SF-295 CNS, in the test with NCI/ADR-RES ovarian, with NCI-H522 lung, with SNB-75 CNS, in the test with SNB-19 CNS and in the test on SN12C renal was greater than 10 µM throughout. Moreover, the TGI in the test with OVCAR-8 ovarian and in the test on A549 NSCLC was greater than 10 µM throughout.

As to `CC(C(=O)NCNC(=O)c1ccccc1)C(=O)NCc1ccccc1` (configuration not stated), the TGI in the test with SK-MEL-2 melanoma, in the test on SF-295 CNS, with NCI/ADR-RES ovarian, with NCI-H522 lung, in the test with SNB-75 CNS and with SNB-19 CNS was greater than 100 µM throughout. Also, the TGI with SN12C renal, with OVCAR-8 ovarian and with A549 NSCLC was greater than 100 µM throughout.

Take `O=c1[nH]nc(Nc2ccc(Cl)cc2)c2nnn(-c3ccc([N+](=O)[O-])cc3)c12`: the TGI in the test with SK-MEL-2 melanoma is 82.2 µM; with SF-295 CNS it was greater than 100 µM; in the test with NCI/ADR-RES ovarian, greater than 100 µM; with NCI-H522 lung, 18 µM; in the test with SNB-75 CNS, greater than 100 µM; in the test with SNB-19 CNS, greater than 100 µM. The TGI was greater than 100 µM with SN12C renal, 48 µM with OVCAR-8 ovarian and 29.1 µM in the test with A549 NSCLC.

As for `CC(C)OP(=O)(OC(C)C)C(=Nc1ccc(N=C(NNc2ccc([N+](=O)[O-])cc2)P(=O)(OC(C)C)OC(C)C)cc1)NNc1ccc([N+](=O)[O-])cc1`, the TGI in the test on SK-MEL-2 melanoma, in the test with NCI-H522 lung, in the test on SNB-75 CNS, in the test with A498 renal, with SNB-19 CNS and with SN12C renal was greater than 100 µM each time. In addition, the TGI with OVCAR-8 ovarian and in the test with A549 NSCLC was greater than 100 µM in each case.

With `C/C(=C\COP(=O)(O)CP(=O)(O)O)CC/C=C(\C)CNc1ccccc1`, the TGI in the test with SK-MEL-2 melanoma, with SF-295 CNS, with NCI/ADR-RES ovarian, in the test with NCI-H522 lung, in the test with SNB-75 CNS and with SNB-19 CNS was greater than 100 µM throughout. In addition, the TGI in the test on SN12C renal, in the test with OVCAR-8 ovarian and in the test on A549 NSCLC was greater than 100 µM each time.

On to `CCCCc1c2c([n+]([O-])c3c1CCCC3)CCCC2`, for which the TGI was greater than 100 µM in the test on SF-295 CNS; 5.33 µM with NCI-H522 lung; greater than 100 µM in the test with SNB-19 CNS; greater than 100 µM in the test with SN12C renal; greater than 100 µM with OVCAR-8 ovarian; greater than 100 µM in the test with A549 NSCLC.

In the case of `N#CC(C#N)=CNC(=S)Nc1ccc(S(=O)(=O)Nc2nccs2)cc1`, the TGI in the test on SK-MEL-2 melanoma, in the test on SF-295 CNS, with NCI/ADR-RES ovarian, in the test on SNB-75 CNS, in the test with A498 renal and in the test on SNB-19 CNS was greater than 100 µM each time. In addition, the TGI in the test on SN12C renal, with OVCAR-8 ovarian and with A549 NSCLC was greater than 100 µM each time.

Take `CC1CC(=O)C(CC(=O)O)[C@H]1C(C(=O)C(=O)Nc1cc(Cl)ccc1Cl)[N+](=O)[O-]` (some centres not stated): the TGI in the test with SF-295 CNS, in the test with NCI-H522 lung, with SNB-75 CNS, in the test on A498 renal, in the test on SNB-19 CNS and in the test with SN12C renal was greater than 100 µM throughout. Besides, the TGI with OVCAR-8 ovarian and in the test on A549 NSCLC was greater than 100 µM throughout.

On to `CC(C)=CCN1c2ccccc2[C@@]2(CC=C(C)C)CCN(C)[C@@H]12`, for which the TGI with SK-MEL-2 melanoma was 33.3 µM; in the test with SF-295 CNS, 46.6 µM; in the test on NCI/ADR-RES ovarian, 53.5 µM; with NCI-H522 lung it was 39.9 µM; in the test with SNB-75 CNS it was greater than 100 µM; in the test on SNB-19 CNS, 52.6 µM. The TGI in the test on SN12C renal was greater than 100 µM; in the test on OVCAR-8 ovarian, 90.2 µM; in the test on A549 NSCLC, greater than 100 µM.

Values taken from PubChem BioAssay (NCI).
